Source: ChEMBL document CHEMBL1201862, “PubChem BioAssay data set” (2004)
The source made the active and inactive calls.

How the values were obtained:
Steroidogenic factor 1 = Steroidogenic factor 1 (Homo sapiens, UniProt Q13285); assay: Counterscreen for inverse agonists of the liver receptor homolog-1 (LRH-1; NR5A2): Luminescence-based cell-based high throughput dose response assay to identify inverse agonists of the Steroidogenic Factor 1 Nuclear Receptor (SF1; NR5A1).; assay type: functional
[1] = nonselective StAR promoter luciferase inhibitors – cell-based, luminescence, luciferase reporter, counter-screen for LRH-1 inverse agonist project, dose response (AID 651969); assay type: functional
[2] = molecular target: Nuclear receptor subfamily 5 group A member 2 (Homo sapiens, UniProt O00482); assay type: functional, cell-based;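 note: HEK293T cells transfected with LRH-1 and a StAR promoter luciferase reporter; potency for inhibitors that lower LRH-1 driven reporter light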
[3] = viability loss in HeLa cells – cytotoxicity control for MgcRacGAP inhibitor project, dose response (AID 624300); assay type: functional
[4] = molecular target: T1, Rac GTPase-activating protein 1 (Homo sapiens, UniProt Q9H0H5); assay: blockers of MgcRacGAP-driven Rac1 GTP hydrolysis – biochemical, ADP Hunter fluorescence, primary and confirmatory, confirmation (AID 624330); assay type: functional
T1 sequence (Q9H0H5 whole entry): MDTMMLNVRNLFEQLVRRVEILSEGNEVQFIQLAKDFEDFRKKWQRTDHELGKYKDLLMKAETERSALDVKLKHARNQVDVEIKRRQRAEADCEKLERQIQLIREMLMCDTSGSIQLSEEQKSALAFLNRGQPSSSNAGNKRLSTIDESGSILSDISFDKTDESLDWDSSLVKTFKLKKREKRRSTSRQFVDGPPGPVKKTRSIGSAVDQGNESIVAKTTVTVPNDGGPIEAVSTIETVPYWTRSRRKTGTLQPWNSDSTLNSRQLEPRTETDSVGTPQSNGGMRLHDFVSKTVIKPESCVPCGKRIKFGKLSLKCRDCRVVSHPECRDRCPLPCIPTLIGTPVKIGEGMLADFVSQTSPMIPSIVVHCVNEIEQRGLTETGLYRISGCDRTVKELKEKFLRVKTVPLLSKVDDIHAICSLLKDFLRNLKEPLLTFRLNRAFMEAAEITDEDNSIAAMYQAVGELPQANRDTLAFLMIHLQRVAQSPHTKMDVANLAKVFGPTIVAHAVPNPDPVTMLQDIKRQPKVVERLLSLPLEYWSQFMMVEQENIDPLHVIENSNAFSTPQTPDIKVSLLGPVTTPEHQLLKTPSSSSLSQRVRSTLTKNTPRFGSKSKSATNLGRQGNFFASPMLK

[5] = molecular target: Glucose-6-phosphate 1-dehydrogenase (Homo sapiens, UniProt P11413); assay: inhibition of Homo sapiens G6PD, dose series – biochemical, fluorescence, selectivity assay for P. falciparum G6PD inhibitor project, dose response (AID 504792); assay type: functional
[6] = molecular target: 5-hydroxytryptamine receptor 2A (Mus musculus, UniProt P35363); assay type: functional, cell-based;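 note: CHO-K1 cells with tagged receptor and beta-arrestin; agonist potency measured as compound-induced activation of the receptor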
Mu-type opioid receptor = Mu-type opioid receptor (Homo sapiens, UniProt P35372); assay type: functional, cell-based;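 note: U2OS cells with beta-arrestin recruitment to OPRM1 by beta-gal complementation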
[7] = molecular target: T2, RNA-binding protein pos-1 (Caenorhabditis elegans, UniProt G5EF15); assay: disruptors of C. elegans POS-1 RNA interaction – biochemical, fluorescence polarization, dose response (AID 1964);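 note: purified POS-1 fused to maltose binding protein made in E. coli; potency of compounds blocking POS-1 binding to fluorescent RNA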
T2 sequence (G5EF15 whole entry): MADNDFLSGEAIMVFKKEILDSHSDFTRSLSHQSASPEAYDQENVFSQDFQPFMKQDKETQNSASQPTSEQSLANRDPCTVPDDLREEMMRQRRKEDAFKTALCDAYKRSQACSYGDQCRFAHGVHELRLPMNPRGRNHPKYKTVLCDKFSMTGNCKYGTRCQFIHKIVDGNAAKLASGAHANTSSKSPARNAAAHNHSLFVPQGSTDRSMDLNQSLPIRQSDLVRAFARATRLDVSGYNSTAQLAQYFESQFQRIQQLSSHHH

[8] = molecular target: T3, Zinc finger protein mex-5 (Caenorhabditis elegans, UniProt Q9XUB2); assay: potency of MEX-5 RNA-binding blockers – biochemical, C. elegans, fluorescence polarization, dose response (AID 1960)
T3 sequence (Q9XUB2 whole entry): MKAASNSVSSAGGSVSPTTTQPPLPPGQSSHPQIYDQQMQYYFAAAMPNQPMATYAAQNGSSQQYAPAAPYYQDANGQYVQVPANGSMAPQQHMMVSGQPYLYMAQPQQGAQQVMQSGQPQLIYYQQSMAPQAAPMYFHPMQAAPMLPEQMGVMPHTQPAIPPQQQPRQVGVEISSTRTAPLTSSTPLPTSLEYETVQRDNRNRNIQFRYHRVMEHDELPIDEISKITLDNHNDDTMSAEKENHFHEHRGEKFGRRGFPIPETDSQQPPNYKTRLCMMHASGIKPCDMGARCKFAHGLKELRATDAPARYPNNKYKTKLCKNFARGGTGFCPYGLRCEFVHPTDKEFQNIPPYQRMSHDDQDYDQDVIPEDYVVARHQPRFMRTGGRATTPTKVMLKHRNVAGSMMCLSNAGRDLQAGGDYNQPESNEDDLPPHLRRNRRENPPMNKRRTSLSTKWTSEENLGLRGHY

[9] = molecular target: DNA (cytosine-5)-methyltransferase 1 (Homo sapiens, UniProt P26358); assay: inhibition of DNA methylation by DNMT1 – biochemical, fluorescent molecular beacon, confirmation (AID 602386); assay type: functional
Genome polyprotein = Genome polyprotein (dengue virus type 2, UniProt P29990); assay: flavivirus cap methylation enzyme inhibition – biochemical, confirmation dose response, primary screen (AID 588689); assay type: functional
[10] = system: Streptococcus sp. 'group A'; assay: Streptococcus pyogenes SK(-)GAS viability under kanamycin – luminescence, BacTiterGlo, confirmation, counter-screen for streptokinase expression inhibitor project, dose response (AID 1900); assay type: functional, organism-based
Streptococcus = assay: GAS UMAA2166 growth inhibition – luminescence, BacTiterGlo, counter-screen for streptokinase expression inhibitor project, dose response (AID 1915); assay type: functional, organism-based;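 note: potency for reduction of bacterial viability or growth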
Streptokinase A = molecular target: T4, Streptokinase A (Streptococcus pyogenes serotype M1, UniProt P10520); assay: viability-normalized secreted streptokinase activity reduction – plasminogen activation absorbance, OD405, dose response (AID 1914); assay type: functional, Streptococcus pyogenes M1 GAS;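 note: secreted streptokinase activity via plasminogen activation per viability signal from cell pellet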
T4 sequence (P10520 whole entry): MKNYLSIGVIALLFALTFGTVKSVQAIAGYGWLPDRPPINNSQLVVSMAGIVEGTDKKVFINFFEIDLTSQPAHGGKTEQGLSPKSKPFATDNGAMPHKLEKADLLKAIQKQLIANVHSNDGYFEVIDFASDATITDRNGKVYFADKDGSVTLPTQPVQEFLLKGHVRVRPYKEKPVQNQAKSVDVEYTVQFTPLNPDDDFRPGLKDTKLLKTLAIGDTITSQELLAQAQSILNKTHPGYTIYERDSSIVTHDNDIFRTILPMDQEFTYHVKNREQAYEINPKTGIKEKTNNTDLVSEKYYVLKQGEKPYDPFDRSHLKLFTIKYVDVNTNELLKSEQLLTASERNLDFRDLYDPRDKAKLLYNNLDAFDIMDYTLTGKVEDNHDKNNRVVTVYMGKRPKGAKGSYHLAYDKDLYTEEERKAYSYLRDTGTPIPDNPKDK

[11] = molecular target: T5, Tyrosine-protein phosphatase non-receptor type 5 (Homo sapiens, UniProt P54829); assay: PTPN5 enzyme inhibition – biochemical, fluorescence intensity, uHTS hits, confirmation (AID 602372); assay type: functional; conditions: read-out: IC50_Mean
T5 sequence (P54829 whole entry): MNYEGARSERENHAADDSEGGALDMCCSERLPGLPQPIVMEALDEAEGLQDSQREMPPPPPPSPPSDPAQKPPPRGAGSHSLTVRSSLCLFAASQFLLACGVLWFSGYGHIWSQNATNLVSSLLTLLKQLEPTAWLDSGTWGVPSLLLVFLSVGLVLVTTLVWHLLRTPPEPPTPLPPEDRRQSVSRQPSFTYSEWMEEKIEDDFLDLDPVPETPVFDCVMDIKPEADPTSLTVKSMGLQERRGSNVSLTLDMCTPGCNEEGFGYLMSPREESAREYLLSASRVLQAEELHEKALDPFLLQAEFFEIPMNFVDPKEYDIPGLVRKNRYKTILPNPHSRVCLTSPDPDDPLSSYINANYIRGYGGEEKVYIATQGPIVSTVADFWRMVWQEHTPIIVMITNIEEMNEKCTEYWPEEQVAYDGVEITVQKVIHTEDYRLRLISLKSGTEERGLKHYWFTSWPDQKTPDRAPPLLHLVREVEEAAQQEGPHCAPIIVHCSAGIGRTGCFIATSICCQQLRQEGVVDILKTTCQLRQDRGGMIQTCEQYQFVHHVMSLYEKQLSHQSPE

[12] = molecular target: T6, Tyrosine-protein phosphatase non-receptor type 11 (Homo sapiens, UniProt Q06124); assay: PTPN11 enzyme inhibitors – biochemical, selectivity assay for STEP inhibitor project, dose response (AID 602367); assay type: functional; conditions: read-out: IC50_Mean
T6 sequence (Q06124 whole entry): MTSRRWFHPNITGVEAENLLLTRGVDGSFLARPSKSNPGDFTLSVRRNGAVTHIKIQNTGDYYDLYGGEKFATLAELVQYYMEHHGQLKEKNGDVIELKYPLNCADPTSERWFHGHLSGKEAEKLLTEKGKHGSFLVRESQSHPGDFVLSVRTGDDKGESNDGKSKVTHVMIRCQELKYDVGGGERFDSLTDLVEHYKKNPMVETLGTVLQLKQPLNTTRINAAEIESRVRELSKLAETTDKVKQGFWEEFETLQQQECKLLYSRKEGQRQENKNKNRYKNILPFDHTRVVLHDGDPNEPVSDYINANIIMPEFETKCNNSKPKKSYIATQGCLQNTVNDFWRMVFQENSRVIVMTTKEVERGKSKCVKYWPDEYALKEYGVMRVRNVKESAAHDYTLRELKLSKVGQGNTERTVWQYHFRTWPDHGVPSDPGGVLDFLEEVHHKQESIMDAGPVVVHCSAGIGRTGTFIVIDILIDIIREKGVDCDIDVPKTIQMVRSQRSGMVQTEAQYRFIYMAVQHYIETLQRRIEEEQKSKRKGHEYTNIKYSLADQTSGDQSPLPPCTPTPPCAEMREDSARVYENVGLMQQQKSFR

[13] = molecular target: T7, Carboxy-terminal domain RNA polymerase II polypeptide A small phosphatase 1 (Homo sapiens, UniProt Q9GZU7); assay: CTDSP1 inhibitors, concentration-response, biochemical, absorbance readout, ultra-high-throughput screen actives (AID 540297); assay type: functional
T7 sequence (Q9GZU7 whole entry): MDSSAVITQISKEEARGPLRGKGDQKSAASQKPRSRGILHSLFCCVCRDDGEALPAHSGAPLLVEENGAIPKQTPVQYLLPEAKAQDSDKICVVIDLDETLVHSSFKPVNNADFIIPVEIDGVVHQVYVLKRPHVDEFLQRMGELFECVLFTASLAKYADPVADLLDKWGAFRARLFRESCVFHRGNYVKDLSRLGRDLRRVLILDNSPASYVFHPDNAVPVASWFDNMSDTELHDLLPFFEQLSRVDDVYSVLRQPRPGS

[14] = molecular target: Dual specificity protein phosphatase 3 (Homo sapiens, UniProt P51452); assay: VHR phosphatase inhibition, dose response, selectivity assay for STEP inhibitor project, biochemical (AID 602374); assay type: functional; conditions: read-out: IC50_Mean
Sequence of Dual specificity protein phosphatase 3 (P51452 whole entry): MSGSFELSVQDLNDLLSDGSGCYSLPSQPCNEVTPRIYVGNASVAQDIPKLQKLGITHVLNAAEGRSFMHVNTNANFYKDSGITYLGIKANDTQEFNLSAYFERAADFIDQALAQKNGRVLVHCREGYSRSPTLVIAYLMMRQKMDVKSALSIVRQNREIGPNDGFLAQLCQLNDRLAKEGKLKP

Sequence of Nuclear receptor subfamily 5 group A member 2 (O00482 whole entry): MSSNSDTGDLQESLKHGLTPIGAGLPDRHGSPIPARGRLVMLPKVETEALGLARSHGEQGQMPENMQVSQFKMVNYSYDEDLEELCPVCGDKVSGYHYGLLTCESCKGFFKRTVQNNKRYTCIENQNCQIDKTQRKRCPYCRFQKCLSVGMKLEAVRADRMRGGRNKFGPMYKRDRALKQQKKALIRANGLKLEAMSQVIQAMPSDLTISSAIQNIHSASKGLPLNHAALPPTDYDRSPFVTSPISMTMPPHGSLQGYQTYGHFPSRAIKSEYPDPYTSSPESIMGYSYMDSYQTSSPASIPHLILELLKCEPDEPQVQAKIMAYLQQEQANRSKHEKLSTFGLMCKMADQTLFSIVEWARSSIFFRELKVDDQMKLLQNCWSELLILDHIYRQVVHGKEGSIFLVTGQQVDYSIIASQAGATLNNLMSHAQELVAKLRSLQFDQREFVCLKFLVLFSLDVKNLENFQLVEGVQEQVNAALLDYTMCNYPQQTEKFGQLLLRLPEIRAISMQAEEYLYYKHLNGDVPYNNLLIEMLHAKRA
Sequence of Steroidogenic factor 1 (Q13285 whole entry): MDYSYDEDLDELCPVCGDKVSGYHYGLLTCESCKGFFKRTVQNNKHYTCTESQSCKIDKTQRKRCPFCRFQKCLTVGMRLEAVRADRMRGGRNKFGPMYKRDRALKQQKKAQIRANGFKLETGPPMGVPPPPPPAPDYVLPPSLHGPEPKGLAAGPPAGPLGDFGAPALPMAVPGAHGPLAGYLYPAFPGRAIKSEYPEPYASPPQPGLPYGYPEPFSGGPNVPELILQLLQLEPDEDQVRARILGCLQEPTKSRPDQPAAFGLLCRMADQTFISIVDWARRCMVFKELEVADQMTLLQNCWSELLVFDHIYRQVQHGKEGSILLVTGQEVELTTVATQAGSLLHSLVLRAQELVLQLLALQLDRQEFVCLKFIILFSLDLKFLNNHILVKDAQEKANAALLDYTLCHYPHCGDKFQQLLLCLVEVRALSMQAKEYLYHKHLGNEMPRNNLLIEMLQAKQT
Sequence of Genome polyprotein (P29990 2492-3391 limits assumed): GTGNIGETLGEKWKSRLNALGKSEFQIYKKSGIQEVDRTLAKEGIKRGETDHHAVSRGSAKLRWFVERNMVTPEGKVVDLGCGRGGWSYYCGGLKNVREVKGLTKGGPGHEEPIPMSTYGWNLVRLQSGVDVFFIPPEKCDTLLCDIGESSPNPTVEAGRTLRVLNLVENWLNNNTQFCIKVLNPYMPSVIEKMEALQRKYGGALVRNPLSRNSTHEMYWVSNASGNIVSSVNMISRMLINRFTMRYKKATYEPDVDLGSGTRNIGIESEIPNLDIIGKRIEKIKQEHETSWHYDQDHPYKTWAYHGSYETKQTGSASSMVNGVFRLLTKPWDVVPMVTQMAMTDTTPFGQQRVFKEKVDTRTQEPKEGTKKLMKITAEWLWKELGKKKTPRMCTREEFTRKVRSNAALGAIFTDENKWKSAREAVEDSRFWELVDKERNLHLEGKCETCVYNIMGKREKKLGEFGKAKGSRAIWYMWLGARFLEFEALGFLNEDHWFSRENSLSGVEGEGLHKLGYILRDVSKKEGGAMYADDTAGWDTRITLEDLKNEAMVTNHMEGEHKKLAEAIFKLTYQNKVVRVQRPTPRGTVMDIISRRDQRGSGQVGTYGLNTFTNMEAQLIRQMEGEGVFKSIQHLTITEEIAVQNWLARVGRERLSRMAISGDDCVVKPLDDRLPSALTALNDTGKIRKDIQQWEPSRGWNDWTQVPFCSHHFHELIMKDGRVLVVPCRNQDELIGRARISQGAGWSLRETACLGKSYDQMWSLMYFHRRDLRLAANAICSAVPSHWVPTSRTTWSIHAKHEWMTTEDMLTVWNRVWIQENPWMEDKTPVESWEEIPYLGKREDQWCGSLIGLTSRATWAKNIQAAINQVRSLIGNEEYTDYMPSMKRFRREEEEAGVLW
Sequence of Mu-type opioid receptor (P35372 whole entry, the tested form may be a part): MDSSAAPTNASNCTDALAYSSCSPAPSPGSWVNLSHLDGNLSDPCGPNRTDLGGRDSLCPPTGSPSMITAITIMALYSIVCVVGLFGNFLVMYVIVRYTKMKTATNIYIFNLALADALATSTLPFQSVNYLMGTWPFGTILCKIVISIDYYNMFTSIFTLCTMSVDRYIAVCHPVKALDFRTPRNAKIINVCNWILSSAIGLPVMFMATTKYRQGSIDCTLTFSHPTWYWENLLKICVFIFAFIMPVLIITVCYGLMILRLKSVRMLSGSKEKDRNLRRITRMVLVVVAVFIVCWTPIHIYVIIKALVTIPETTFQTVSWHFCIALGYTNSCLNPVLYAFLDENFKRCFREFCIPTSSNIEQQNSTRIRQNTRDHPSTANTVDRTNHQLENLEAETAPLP
Sequence of DNA (cytosine-5)-methyltransferase 1 (P26358 whole entry): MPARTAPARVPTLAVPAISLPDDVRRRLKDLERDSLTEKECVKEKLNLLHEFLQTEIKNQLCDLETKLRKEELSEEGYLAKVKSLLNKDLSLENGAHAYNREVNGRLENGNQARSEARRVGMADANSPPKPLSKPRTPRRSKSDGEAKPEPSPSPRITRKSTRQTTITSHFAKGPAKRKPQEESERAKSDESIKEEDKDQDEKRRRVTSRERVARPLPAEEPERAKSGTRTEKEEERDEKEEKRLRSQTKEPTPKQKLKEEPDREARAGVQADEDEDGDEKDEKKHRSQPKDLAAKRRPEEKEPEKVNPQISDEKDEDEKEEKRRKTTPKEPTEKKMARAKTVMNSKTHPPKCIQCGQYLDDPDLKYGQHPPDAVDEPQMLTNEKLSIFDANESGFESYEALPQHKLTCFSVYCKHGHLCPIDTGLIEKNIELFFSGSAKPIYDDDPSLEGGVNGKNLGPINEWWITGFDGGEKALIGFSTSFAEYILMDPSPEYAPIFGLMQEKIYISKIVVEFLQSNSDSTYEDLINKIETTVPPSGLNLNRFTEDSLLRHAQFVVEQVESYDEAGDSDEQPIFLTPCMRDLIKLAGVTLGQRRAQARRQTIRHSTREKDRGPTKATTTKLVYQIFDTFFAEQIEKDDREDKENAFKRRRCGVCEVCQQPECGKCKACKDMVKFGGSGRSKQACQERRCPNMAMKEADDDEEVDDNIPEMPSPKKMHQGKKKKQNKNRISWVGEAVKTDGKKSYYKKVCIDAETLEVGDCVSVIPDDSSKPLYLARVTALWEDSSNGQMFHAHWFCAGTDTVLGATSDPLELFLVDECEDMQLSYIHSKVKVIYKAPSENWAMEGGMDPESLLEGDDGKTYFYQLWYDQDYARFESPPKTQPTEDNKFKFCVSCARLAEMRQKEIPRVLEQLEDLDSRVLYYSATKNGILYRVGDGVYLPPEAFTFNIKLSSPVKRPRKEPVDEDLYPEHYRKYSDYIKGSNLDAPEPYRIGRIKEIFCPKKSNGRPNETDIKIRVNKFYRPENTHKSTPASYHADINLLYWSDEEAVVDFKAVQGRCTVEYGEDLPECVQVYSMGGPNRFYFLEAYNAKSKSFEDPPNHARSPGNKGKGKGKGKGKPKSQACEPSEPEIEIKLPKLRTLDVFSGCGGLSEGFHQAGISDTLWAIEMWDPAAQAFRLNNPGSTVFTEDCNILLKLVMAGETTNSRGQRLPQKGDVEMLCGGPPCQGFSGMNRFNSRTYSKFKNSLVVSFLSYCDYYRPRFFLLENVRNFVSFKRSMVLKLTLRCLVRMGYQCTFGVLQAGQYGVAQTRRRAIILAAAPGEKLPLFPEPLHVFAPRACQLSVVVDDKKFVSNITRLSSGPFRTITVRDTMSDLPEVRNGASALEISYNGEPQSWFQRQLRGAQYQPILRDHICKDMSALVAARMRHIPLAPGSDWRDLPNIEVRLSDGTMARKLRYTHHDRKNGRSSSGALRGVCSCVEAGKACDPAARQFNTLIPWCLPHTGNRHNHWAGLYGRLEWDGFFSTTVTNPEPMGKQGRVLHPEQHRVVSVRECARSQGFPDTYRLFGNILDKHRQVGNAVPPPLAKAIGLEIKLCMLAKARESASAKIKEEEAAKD
Sequence of Glucose-6-phosphate 1-dehydrogenase (P11413 whole entry): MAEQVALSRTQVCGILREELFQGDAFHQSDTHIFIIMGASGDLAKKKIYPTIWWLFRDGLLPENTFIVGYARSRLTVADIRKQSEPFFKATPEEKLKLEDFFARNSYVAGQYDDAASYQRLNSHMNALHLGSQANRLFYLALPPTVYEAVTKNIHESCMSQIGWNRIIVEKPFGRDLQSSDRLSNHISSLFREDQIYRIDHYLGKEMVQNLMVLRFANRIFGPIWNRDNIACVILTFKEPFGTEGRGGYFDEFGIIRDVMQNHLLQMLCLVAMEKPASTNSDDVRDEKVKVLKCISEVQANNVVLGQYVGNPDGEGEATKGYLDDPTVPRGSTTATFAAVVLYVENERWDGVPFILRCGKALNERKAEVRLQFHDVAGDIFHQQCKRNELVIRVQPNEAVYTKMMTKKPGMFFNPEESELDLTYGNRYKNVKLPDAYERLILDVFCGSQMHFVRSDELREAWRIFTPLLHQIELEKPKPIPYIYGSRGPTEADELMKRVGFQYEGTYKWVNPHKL

Compound: COc1ccc(CCNC(=O)COC(=O)C23CC4CC(CC(C4)C2)C3)cc1
- IC50 (Steroidogenic factor 1): 2.17 µM (active)
- IC50 [1]: 35.9 µM (inactive)
- IC50 [2]: 28.6 µM (inactive)

Compound: Cn1c(=O)c2c(nc(S)n2CCCc2ccccc2)n(C)c1=O
- CC50 [3]: 100 µM (active)
- IC50 [4]: 16.1 µM (active)
- IC50 [5]: 60.7 µM (inactive)

Compound: Cc1cccc(CN2CCN(c3ccccn3)CC2)c1
- EC50 [6]: 0.128 µM (active)
- EC50 (Mu-type opioid receptor): 92.5 µM (inactive)

Compound: Cc1nn(Cc2ccccc2)c(C)c1C(=O)OCC(=O)Nc1ccccc1SCC#N
- IC50 (Steroidogenic factor 1): 2.41 µM (active)
- IC50 [1]: 35.9 µM (inactive)
- IC50 [2]: 1.33 µM (active)

Compound: O=C1NC(=O)N(c2ccccc2)C(=O)/C1=C/c1coc2ccc(O)cc2c1=O
- CC50 [3]: 100 µM (active)
- IC50 [4]: 110 µM (active)
- EC50 [7]: > 300 µM (not active)
- EC50 [8]: > 300 µM (not active)

Compound: O=C(O)CN1C(=O)/C(=C\c2cc(Br)ccc2OCc2ccccc2Cl)SC1=S
- IC50 [9]: 4.7 µM (active)
- IC50 (Genome polyprotein): 24.3 µM (active)
- EC50 [10]: 1.97 µM (active)
- EC50 (Streptococcus): 5.9 µM (active)
- EC50 (Streptokinase A): > 150 µM (not active)

Compound: CCOc1ccc(NC(=O)CSc2nncc(=O)n2N)cc1
- IC50 (Steroidogenic factor 1): 12 µM (inactive)
- IC50 [1]: 35.9 µM (inactive)
- IC50 [2]: 35.9 µM (inactive)

Compound: O=C(N/N=C/c1ccc(Br)cc1)c1ccc(Br)o1
- IC50 [11]: 17.1 µM (active)
- IC50 [12]: 9.11 µM (active)
- IC50 [13]: 6.85 µM (active)
- IC50 [14]: 8.79 µM (active)
